# What was measured:
# [1] = tested on: primary hippocampal neurons; experiment: Neurite outgrowth assay, monocultures of primary hippocampal neurons; type: cell-based, rat; conditions: monoculture, stimulated 24 hours; GDNF 1-100 ng/ml, peptides 0.1-27 μg/ml; versus medium alone
# Description: (§1) Two different versions of the neurite outgrowth assay were used in this study, monocultures and co-cultures.
# (§2) In monocultures, neurons are grown directly on plastic and the only neuritogenic stimulus is the one presented by the added substance. In co-cultures, neurons are grown on top of a confluent monolayer of fibroblasts expressing NCAM-140 (LBN110) or NCAM-negative control fibroblasts (LVN212). NCAM on the neurons interact with NCAM on LBN110 cells thereby stimulating neurite outgrowth from the neurons. This system thus permits the study of NCAM-NCAM interactions and interactions between NCAM and other molecules.
# (§3) For all experiments cells were grown in neurobasal medium with supplements as described above in a final volume of 300 μl/well in 8-well LabTek® Permanox Chamber slides or 500 μl/well in 4-well LabTek® Permanox Chamber slides.
# For monocultures, primary hippocampal neurons were seeded in 8-well LabTek® Permanox Chamber slides at a density of 10,000 cells/well.
# (§4) To evaluate the effect peptides on neurite outgrowth, GDNF and the peptides, G1, G2, G3, A1, A2, A3, N1, N2 and N3 were diluted to the appropriate concentrations and added to the neurons approximately 10 minutes after seeding. Medium alone was added to controls, and cells were incubated for 24 hours.
# Neurite outgrowth experiments were terminated after the stated time by fixating the cells. To visualize neurons and their neurites, immunostaining of GAP-43 was performed. This staining is specific for neurons. Transfected cells and their neurites should be visible without immunostaining due to the fluorescence emitted by GFP. […] GFP is a cytoplasmic protein, and since thin neurites only contain a small volume of cytoplasm, GFP is only found in small amounts in most neurites. Therefore, a double-staining protocol, where cells were immunostained against GFP and GAP-43, was adopted. This protocol allowed the identification of transfected cells on the basis of GFP-staining in combination with visualization of neurites based on GAP-43-staining. […]
# hippocampal neurons = experiment: Neurite outgrowth assay, co-cultures of hippocampal neurons on control fibroblasts or NCAM-expressing fibroblasts; type: cell-based, rat; conditions: 24 hours
# Description: as §1, §2, §3
# For cocultures, L-cells were seeded in 8-well LabTek® Permanox Chamber slides at a density of 100.000 cells/well, except for transfection experiments where cells were seeded in 4-well LabTek® Permanox Chamber slides at a density of 200.000 cells/well. L-cells were grown for 24 hours in DMEM supplemented with 10% (v/v) FCS, 1% (v/v) glutamax, 100 U/ml penicillin, 100 μg/ml streptomycin, 2.5 μg/ml fungizone, and 567 μg/ml neomycin (G418), followed by washing twice in neurobasal medium with supplements before primary hippocampal neurons were seeded at a density of 7.000 cells/well in 8-well slides or 20.000 cells/well in 4-well slides.
# as §4
# Neurite outgrowth experiments were terminated after the stated time by fixating the cells. To visualize neurons and their neurites, immunostaining of GAP-43 was performed. This staining is specific for neurons. Transfected cells and their neurites should be visible without immunostaining due to the fluorescence emitted by GFP. […] GFP is a cytoplasmic protein, and since thin neurites only contain a small volume of cytoplasm, GFP is only found in small amounts in most neurites. Therefore, a double-staining protocol, where cells were immunostained against GFP and GAP-43, was adopted. This protocol allowed the identification of transfected cells on the basis of GFP-staining in combination with visualization of neurites based on GAP-43-staining.
# Without prior removal of the medium 300 μl/well (8-well slides) or 500 μl/well (4-well slides) of a PBS solution containing 0.4 mM CaCl2, 0.05 M sucrose and 8% (v/v) formaldehyde was added to the cultures for 20 minutes. Cells were then washed 10 minutes in PBS followed by washing in PBS with 1% (w/v) BSA for 20 minutes, after which cells were incubated with primary antibodies overnight at 4° C.
# Rabbit anti-rat GAP-43 antibodies were diluted 1:1000 for staining of untransfected cells and 1:2000 for staining of transfected cells. Mouse anti-GFP antibodies were diluted 1:1000. Antibodies were diluted in a PBS solution containing 7% (v/v) FCS to block unspecific binding, 50 mM glycine to block formaldehyde used for fixation, 0.2% (v/v) saponin to permeabilize cells, and 0.02% (v/v) NaN3 to preserve antibodies for later use.
# The next day cells were washed 10 minutes in PBS followed by washing in PBS with 1% (w/v) BSA for 20 minutes. Cells were then incubated with secondary antibodies diluted in PBS with 1% (w/v) BSA for one hour at room temperature. Goat anti-rabbit IgG antibodies conjugated to Alexa 488 were diluted 1:1000 for untransfected cells and 1:2000 for transfected cells. Goat anti-mouse IgG antibodies conjugated to Alexa 546 were diluted 1:1000. Finally cells were washed 3×7 minutes in PBS and mounted with fluorescent mounting medium. […]
# dopaminergic neurons = experiment: Survival assay, dopaminergic neurons (6-OHDA); type: cell-based, Wistar rat; conditions: 100 μM 6-OHDA for two hours, further 24 hours with peptide
# Description: Dopaminergic neurons were prepared from Wistar rat embryos at embryonic day 15 (Charles River, Sulzfeld, Germany or Møllegaard, Denmark). A pregnant rat was sacrificed and the uterus was taken out and kept on ice in Hank's balanced salt solution (HBSS; Gibco, BRL). The ventral part of the mesencephalon was dissected from the embryonic brains, homogenised on ice in Gey's balanced salt solution (GBSS; Gibco, BRL) supplemented with 5 g glucose/l (Sigma-Aldrich) and thereafter trypsinised. The dissociated cells were washed in the presence of DNAse 1 and soybean trypsin inhibitor (Sigma-Aldrich).
# Dopaminergic neurons were seeded at a density of 150,000 cells/cm^2 in 24-well cell culture plates coated with poly-D-lysine as described above. The neurons were left to differentiate for six days without or with various concentrations of peptide, after which 6-OHDA was added at a concentration of 100 μM for two hours. A stock solution was prepared by dissolving 6-OHDAto a concentration of 10 mM in 0.1% (w/v) sodium metabisulphite in order to prevent oxidation. After two hours with 6-OHDA, the medium was changed to Neurobasal medium with supplements and peptide, and the cell cultures were further incubated for 24 hours, fixed and immunostained for tyrosine hydroxylase. 98 images for each experimental condition in each individual experiment were automatically video-recorded.
sequence,measurement,setting,value
"ETTYDKILKNLSRNR (listed as Homo sapiens) [G2, GDNF fragment]","neurite outgrowth, overall effect of treatment (one-way ANOVA)",[1],overall statistical significant effect
same,"neurite outgrowth, overall effect of treatment, neurons grown on NCAM-expressing fibroblasts","hippocampal neurons; co-culture on NCAM-expressing fibroblasts, GDNF 1-100 ng/ml, peptides 0.1-81 μg/ml",overall significant effect
same,"neurite outgrowth, overall effect of treatment, neurons grown on control fibroblasts","hippocampal neurons; co-culture on control fibroblasts, GDNF 1-100 ng/ml, peptides 0.1-81 μg/ml",overall significant effect
same,difference between neurite outgrowth on control fibroblasts and on NCAM-expressing fibroblasts across concentrations (one-way ANOVA),"hippocampal neurons; difference per concentration, expressed as percentage of control",mean differences are not all the same
same,survival of dopaminergic neurons,dopaminergic neurons,increases the survival of dopaminergic neurons
